Measurements: publication PMC5766630, “Non-estrogenic Xanthohumol Derivatives Mitigate Insulin Resistance and Cognitive Impairment in High-Fat Diet-induced Obese Mice” (Scientific Reports, 2018)

Legend:
[1] = LC-MS/MS analysis of XN, DXN and TXN in mouse liver, plasma and muscle; assay type: in vivo; settings: for Plasma concentration, fold greater than combined XN + IX / Muscle concentration, fold greater than combined XN + IX / Liver concentration, fold greater than combined XN + IX: HFD mice, 30 mg/kg/day in diet, 13 weeks; for Muscle concentration, fold greater than combined XN + IX: hind leg skeletal muscle; for Liver concentration, fold greater than combined XN + IX: steady state
Source text: Nine-week old male C57BL/6J mice, obtained from The Jackson Laboratory (Bar Harbor, ME, USA), were housed individually in plastic cages under a 12–12-hr light-dark cycle. They were assigned randomly to four groups consisting of 12 mice each. One group (control) was fed a HFD (Dyets Inc., Bethlehem, PA, USA) containing 60%, 20% and 20% total calories from fat, carbohydrate and protein, respectively, and the other three groups were fed the HFD containing XN, DXN, or TXN. The test compounds were dissolved in an isotropic mixture of oleic acid:propylene glycol:Tween 80, 0.9:1:1 by weight (OPT) before incorporation into the HFD. The control diet contained an identical amount of OPT. All diets were prepared in pellet form by Dyets, Inc. (Bethlehem, PA, USA). The mouse diets were formulated to deliver a dose of 30 mg test compound per kg body weight per day. Food intake was measured three times per week and body weights were recorded weekly. At the end of 13 weeks of feeding, the mice were euthanized and blood, liver and skeletal muscle were collected for analyses. All animal protocols were approved by Institutional Animal Care and Use Committee (IACUC) at Oregon State University. Animal experiments were carried out in accordance with the relevant guidelines and regulations.
Liver and plasma from each mouse were subjected to enzymatic hydrolysis, extracted and analyzed using the paper strip extraction technique as previously described[36],[96]. For skeletal muscle, approximately 200 mg of frozen muscle tissue were placed into tubes containing ceramic beads (1.4 mm Ceramic, Bulk Beads, Fisher Scientific, Pittsburgh, PA, USA) and methanol:water (90:10; 500 μL/200 mg tissue) and homogenized using a Precellys 24 (PEQLAB Biotechnology GmbH, Germany). The tissue was homogenized for 3 × 30 sec at 6,500 rpm with 20 sec intervals and then centrifuged at 15,700 × g for 10 minutes and 100 μl of supernatant was used for the paper strip extraction as previously described[36],[96]. Concentrations of XN, DXN and TXN were calculated using an internal standard, 2′,4-dihydroxychalcone (DHC), with matrix-based calibration curves and Analyst Software (Analyst 1.5, AB Sciex, Foster City, CA, USA). Samples were analyzed by LC-MS/MS using an AB Sciex 4000 Q-trap triple quadrupole mass spectrometer using a source temperature of 600 °C and a needle voltage of −4500 V. The source, curtain and collision gases were all nitrogen. Analytes were separated by high performance liquid chromatography (HPLC) using a 2.1 × 50 mm Agilent Zorbax 300 SB – C8 3.5 µm column (Agilent, Santa Clara, CA, USA). The elution gradient was 25 to 60% solvent B (0.1% formic acid in acetonitrile) in solvent A (aqueous 0.1% formic acid) in 2.6 minutes using a flow rate of 0.5 ml/min after an initial 1.4 min at 25% solvent B. The gradient was then increased to 100% solvent B in 0.1 min and held at 100% B for 1.4 min, then dropped to 25% B in 0.25 minutes, followed by re-equilibration with 25% B for 9.25 minutes. SRM transitions for quantification were: m/z 353 → 119 for XN, m/z 353 → 233 for IX, m/z 339 → 219 for 8-PN, m/z 355 → 249 for DXN, m/z 357 → 251 for TXN, and m/z 239 → 119 for DHC.

[2] = molecular target: T1, full-length purified human estrogen receptor ERβ (Homo sapiens, UniProt Q92731); assay: ERβ competitive radiometric binding assay; settings: RBA = IC50[estradiol]/IC50[compound] × 100, estradiol = 100; 2 nM [3H]-estradiol tracer, 18–24 h at 0 °C
T1 construct: full-length purified human estrogen receptors ERα and ERβ
Method: . The receptors and ligands were incubated for 18–24 h at 0 °C and then the receptor–ligand complexes separated using hydroxyapatite (BioRad, Hercules, CA, USA). […]

[3] = test system: human LDL; parameters: method as in PMID 14565769; settings: cited from earlier work
[4] = test system: HFD-fed C57BL/6 J mice; parameters: method as in PMID 26976708; settings: oral, 60 mg/kg/day; cited from earlier work
[5] = test system: quinone reductase; parameters: method as in PMID 10737704; settings: cited from earlier work
[6] = test system: mice; settings: cited from earlier work

T1 sequence (Q92731 whole entry): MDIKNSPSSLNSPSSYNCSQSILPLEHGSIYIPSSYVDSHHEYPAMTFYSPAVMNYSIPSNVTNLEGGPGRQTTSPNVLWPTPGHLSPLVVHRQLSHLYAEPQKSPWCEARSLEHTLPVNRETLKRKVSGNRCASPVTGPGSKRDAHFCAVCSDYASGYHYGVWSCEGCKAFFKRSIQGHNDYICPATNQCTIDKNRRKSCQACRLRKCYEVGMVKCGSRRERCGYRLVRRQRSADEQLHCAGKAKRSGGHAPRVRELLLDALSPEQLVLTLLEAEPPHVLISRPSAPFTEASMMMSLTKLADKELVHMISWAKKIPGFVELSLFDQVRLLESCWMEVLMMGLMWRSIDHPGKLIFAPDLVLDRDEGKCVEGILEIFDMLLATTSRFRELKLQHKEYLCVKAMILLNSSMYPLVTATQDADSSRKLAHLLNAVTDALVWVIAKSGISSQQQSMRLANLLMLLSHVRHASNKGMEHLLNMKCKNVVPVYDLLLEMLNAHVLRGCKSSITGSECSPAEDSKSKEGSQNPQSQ

COc1cc(O)c(CC=C(C)C)c(O)c1C(=O)CCc1ccc(O)cc1 [DXN, α,β-Dihydroxanthohumol]
Plasma concentration, fold greater than combined XN + IX [1]: 7 fold | Muscle concentration, fold greater than combined XN + IX [1]: 7 fold | Liver concentration, fold greater than combined XN + IX [1]: 6 fold | RBA ERβ (relative binding affinity) [2]: 0.009 ± 0.002

COc1cc(O)c(CCC(C)C)c(O)c1C(=O)CCc1ccc(O)cc1 [TXN, tetrahydroxanthohumol]
Inhibition of SIN-1-induced lipid peroxidation of human LDL [3]: little or negligible protection | Plasma concentration, fold greater than combined XN + IX [1]: 10 fold | Muscle concentration, fold greater than combined XN + IX [1]: 5 fold | concentration at 13 weeks ([1]; male, C57BL/6J, mouse, liver, oral dosing at 30 mg/kg/day, read-out: Liver concentration (highest measured)): 5 µM | Liver tissue concentration (highest measured) ([1]; mouse dose of 30 mg/kg/day): 5 nmol/g | Liver concentration, fold greater than combined XN + IX [1]: 12 fold | RBA ERβ (relative binding affinity) [2]: 0.009 ± 0.002

COc1cc(O)c(CC=C(C)C)c(O)c1C(=O)/C=C/c1ccc(O)cc1 [XN, 3′-[3,3-dimethylallyl]-2′,4′,4-trihydroxy-6′-methoxychalcone]
HOMA-IR, change vs vehicle/HFD controls [4]: −52% | Interleukin-6 (IL-6), change vs vehicle/HFD controls [4]: −78% | Leptin, change vs vehicle/HFD controls [4]: −41% | Plasma LDL-c, change vs vehicle/HFD controls [4]: −80% | Plasma PCSK9, change vs vehicle/HFD controls [4]: −44% | Induction of quinone reductase [5]: potent inducer | Inhibition of SIN-1-induced lipid peroxidation of human LDL [3]: effectively inhibits | RBA ERβ (relative binding affinity) [2]: 0.003 ± 0.001 | Dose with no detectable toxicity [6]: at least 1,000 mg/kg
